# Read-outs that look alike come from different tables or passages of the source.
# Legend:
# Format in all cases: biochemical
# CDK2/CCNE1 = CDK2/CCNE1 (Homo sapiens, UniProt P24941); test: CDK2 homogeneous time-resolved fluorescence (HTRF) kinase assay; settings: CDK2/CCNE
# Procedure, shortened: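 IC50 derived from 11-point, half-log dilutions (usually top 10 μM) of compound, 1% DMSO. Kinase (3 nM CDK2/CCNE1) was preincubated with compound 20 min, then phosphorylated 50 nM ULight-4E-BP1 peptide at 1 mM ATP for 60 min, 23 °C. Europium-antibody TR-FRET read after EDTA stop.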
# CDK1/CCNB1 = CDK1/CCNB1 (Homo sapiens, UniProt P06493); test: CDK1 homogeneous time-resolved fluorescence (HTRF) kinase assay; settings: CDK1/CCNB
# Procedure, shortened: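 Compounds, titrated 11 points in half-log steps typically from 10 μM, were incubated with enzyme for 20 min before ATP (1 mM) and ULight-labelled eIF4E-binding protein 1 peptide (50 nM) started a 60-min reaction at 23 °C. Phosphopeptide was detected by europium-antibody TR-FRET and IC50 values were derived.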
# CDK4/CCND3 = CDK4/CCND3 (Homo sapiens, UniProt P11802); test: CDK4 homogeneous time-resolved fluorescence (HTRF) kinase assay; settings: CDK4/CCND
# Procedure, shortened: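 HTRF kinase assay, CDK4/CCND3 1.5 nM, ATP 1 mM, ULight-4E-BP1 peptide 50 nM, 23 °C, 60 min reaction after 20 min preincubation. Eu-anti-pThr37/46 antibody detection. 11-pt half-log curves from 10 μM → IC50.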
# CDK6/CCND1 = CDK6/CCND1 (Homo sapiens, UniProt Q00534); test: CDK6 homogeneous time-resolved fluorescence (HTRF) kinase assay; settings: CDK6/CCND
# Procedure, shortened: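 Recombinant CDK6/CCND1 (1 nM final) was preincubated with compound for 20 min at 23 °C in HEPES buffer with MgCl2, EGTA, DTT and Tween 20. Kinase reaction then ran 60 min at 23 °C with 1 mM ATP and 50 nM ULight-4E-BP1 (Thr37/46) peptide, and was stopped with EDTA.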
# [1] = >250 nM, read-out: CDK1/CCNB IC50 >250 nM
# [2] = >250 nM, 1 mM ATP, read-out: CDK6/CCND IC50, >250 nM
# [3] = <25 nM, read-out: CDK2/CCNE IC50, <25 nM
# [4] = 25-250 nM, read-out: CDK4/CCND IC50, 25-250 nM
# [5] = 25-250 nM, read-out: CDK1/CCNB IC50, 25-250 nM
# [6] = 25-250 nM, 1 mM ATP, read-out: CDK6/CCND IC50, 25-250 nM
# [7] = x = IC50 <25 nM, read-out: CDK2/CCNE IC50 (<25 nM)
# [8] = x = IC50 25-250 nM, read-out: CDK1/CCNB IC50 (25-250 nM)
# [9] = x = IC50 25-250 nM, read-out: CDK4/CCND IC50 (25-250 nM)
# [10] = x = IC50 25-250 nM, read-out: CDK6/CCND IC50 (25-250 nM)
# [11] = x = IC50 >250 nM, read-out: CDK4/CCND IC50 (>250 nM column)
# [12] = x = IC50 >250 nM, read-out: CDK6/CCND IC50 (>250 nM column)
# [13] = x = IC50 >250 nM, read-out: CDK1/CCNB IC50 (>250 nM column)
# [14] = <25 nM, read-out: CDK2/CCNE IC50 <25 nM
# [15] = 25-250 nM marked x, read-out: CDK1/CCNB IC50 25-250 nM
# [16] = >250 nM marked x, read-out: CDK6/CCND IC50 >250 nM
# [17] = >250 nM marked x, read-out: CDK1/CCNB IC50 >250 nM
# [18] = >250 nM marked x, read-out: CDK4/CCND IC50 >250 nM
# CDK1/CCNB1, sequence (P06493 whole entry): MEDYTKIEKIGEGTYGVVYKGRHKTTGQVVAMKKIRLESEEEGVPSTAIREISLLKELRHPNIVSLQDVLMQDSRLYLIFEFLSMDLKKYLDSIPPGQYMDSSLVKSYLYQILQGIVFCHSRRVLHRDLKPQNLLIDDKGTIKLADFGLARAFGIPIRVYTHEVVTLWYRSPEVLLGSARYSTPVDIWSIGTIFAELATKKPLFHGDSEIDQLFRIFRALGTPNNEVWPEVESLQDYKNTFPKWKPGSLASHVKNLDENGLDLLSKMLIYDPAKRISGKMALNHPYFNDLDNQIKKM
# CDK1/CCNB1, sequence (P14635 whole entry partner): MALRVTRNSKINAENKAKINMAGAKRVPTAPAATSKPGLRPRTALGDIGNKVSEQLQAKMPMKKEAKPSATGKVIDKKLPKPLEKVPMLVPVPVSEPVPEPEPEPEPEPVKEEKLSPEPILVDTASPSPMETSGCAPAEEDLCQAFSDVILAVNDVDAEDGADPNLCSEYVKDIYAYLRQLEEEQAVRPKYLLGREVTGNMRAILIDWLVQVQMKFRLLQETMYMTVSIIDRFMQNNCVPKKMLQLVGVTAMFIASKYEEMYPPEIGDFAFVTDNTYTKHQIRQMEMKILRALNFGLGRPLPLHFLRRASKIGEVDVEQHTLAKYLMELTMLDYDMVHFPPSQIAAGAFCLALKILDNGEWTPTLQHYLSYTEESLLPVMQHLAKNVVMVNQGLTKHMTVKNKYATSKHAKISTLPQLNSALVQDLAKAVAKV
# CDK4/CCND3, sequence (P11802 whole entry): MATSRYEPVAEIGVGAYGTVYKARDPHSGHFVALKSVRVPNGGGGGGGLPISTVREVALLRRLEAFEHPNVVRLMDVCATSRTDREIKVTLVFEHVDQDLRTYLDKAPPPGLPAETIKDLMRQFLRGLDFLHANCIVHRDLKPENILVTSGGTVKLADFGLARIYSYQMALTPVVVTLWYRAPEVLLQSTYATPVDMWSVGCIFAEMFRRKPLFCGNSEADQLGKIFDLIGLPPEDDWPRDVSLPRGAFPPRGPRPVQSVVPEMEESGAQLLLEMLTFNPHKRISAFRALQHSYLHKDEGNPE
# CDK4/CCND3, sequence (P30281 whole entry partner): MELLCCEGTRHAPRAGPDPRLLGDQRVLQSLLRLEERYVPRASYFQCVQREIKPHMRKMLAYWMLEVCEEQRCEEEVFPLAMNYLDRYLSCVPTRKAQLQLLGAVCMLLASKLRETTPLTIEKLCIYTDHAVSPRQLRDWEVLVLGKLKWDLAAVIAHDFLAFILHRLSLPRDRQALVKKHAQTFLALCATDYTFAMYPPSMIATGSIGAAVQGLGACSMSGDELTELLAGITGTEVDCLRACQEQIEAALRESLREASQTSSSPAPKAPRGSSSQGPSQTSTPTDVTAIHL
# CDK6/CCND1, sequence (Q00534 whole entry): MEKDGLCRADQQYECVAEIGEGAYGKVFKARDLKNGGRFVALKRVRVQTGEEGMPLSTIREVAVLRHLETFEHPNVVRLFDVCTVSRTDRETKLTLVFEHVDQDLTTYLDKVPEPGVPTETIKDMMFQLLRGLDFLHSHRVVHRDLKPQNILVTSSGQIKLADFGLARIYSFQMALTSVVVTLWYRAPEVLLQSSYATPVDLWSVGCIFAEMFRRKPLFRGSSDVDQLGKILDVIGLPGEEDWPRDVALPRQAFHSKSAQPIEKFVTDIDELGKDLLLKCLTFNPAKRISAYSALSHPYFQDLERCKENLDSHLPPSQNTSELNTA
# CDK6/CCND1, sequence (P24385 whole entry partner): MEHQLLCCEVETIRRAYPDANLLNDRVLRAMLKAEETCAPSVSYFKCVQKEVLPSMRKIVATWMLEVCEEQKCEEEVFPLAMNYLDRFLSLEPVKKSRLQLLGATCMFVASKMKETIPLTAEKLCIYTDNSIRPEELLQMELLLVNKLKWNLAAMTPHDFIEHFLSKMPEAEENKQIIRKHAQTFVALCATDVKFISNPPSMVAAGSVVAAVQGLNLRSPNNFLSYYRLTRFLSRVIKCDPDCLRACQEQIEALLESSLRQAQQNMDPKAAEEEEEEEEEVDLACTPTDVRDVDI
smiles,measurement,setting,value
"Cc1c(-c2nccc3cnc(NC4CCCN(S(C)(=O)=O)C4)cc23)ccc2c1cnn2CC(C)(C)O (racemic) [Ex 918, 2-methyl-1-(4-methyl-5-(7-((1-(methylsulfonyl)piperidin-3-yl)amino)-2,6-naphthyridin-1-yl)-1H-indazol-1-yl)propan-2-ol]",IC50,"CDK2/CCNE1; 25-250 nM, read-out: CDK2/CCNE IC50, 25-250 nM",25 to 250 nM
same,IC50,CDK1/CCNB1; [1],> 250 nM
same,IC50,"CDK4/CCND3; >250 nM, read-out: CDK4/CCND IC50, >250 nM",> 250 nM
same,IC50,CDK6/CCND1; [2],> 250 nM
"CS(=O)(=O)c1ccc(Nc2cc3c(C#CC45CCC(Cl)(CC4)CC5)nccc3cn2)cc1 (racemic) [Ex 944, 5-((4-chlorobicyclo[2.2.2]octan-1-yl)ethynyl)-N-(4-(methylsulfonyl)phenyl)-2,6-naphthyridin-3-amine]",IC50,CDK2/CCNE1; [3],< 25 nM
same,IC50,CDK1/CCNB1; [1],> 250 nM
same,IC50,CDK4/CCND3; [4],25 to 250 nM
same,IC50,CDK6/CCND1; [2],> 250 nM
"CS(=O)(=O)c1ccc(Nc2cc3c(C#CC45CC(C(N)=O)(C4)C5)nccc3cn2)cc1 (racemic) [Ex 945, 3-((7-((4-(methylsulfonyl)phenyl)amino)-2,6-naphthyridin-1-yl)ethynyl)bicyclo[1.1.1]pentane-1-carboxamide]",IC50,CDK2/CCNE1; [3],< 25 nM
same,IC50,CDK1/CCNB1; [5],25 to 250 nM
same,IC50,CDK4/CCND3; [4],25 to 250 nM
same,IC50,CDK6/CCND1; [6],25 to 250 nM
"CS(=O)(=O)c1ccc(Nc2cc3c(C#CC45CCC(C#N)(CC4)CC5)nccc3cn2)cc1 (racemic) [Ex 946, 4-((7-((4-(methylsulfonyl)phenyl)amino)-2,6-naphthyridin-1-yl)ethynyl)bicyclo[2.2.2]octane-1-carbonitrile]",IC50,CDK2/CCNE1; [3],< 25 nM
same,IC50,CDK1/CCNB1; [5],25 to 250 nM
same,IC50,CDK4/CCND3; [4],25 to 250 nM
same,IC50,CDK6/CCND1; [6],25 to 250 nM
"CC1(O)C(=O)Nc2cc(C#Cc3nccc4cnc(Nc5ccc(S(C)(=O)=O)cc5)cc34)ccc21 (racemic) [Example 362, 3-hydroxy-3-methyl-6-((7-((4-(methylsulfonyl)phenyl)amino)-2,6-naphthyridin-1-yl)ethynyl)indolin-2-one]",IC50,CDK2/CCNE1; [7],< 25 nM
same,IC50,CDK1/CCNB1; [8],25 to 250 nM
same,IC50,CDK4/CCND3; [9],25 to 250 nM
same,IC50,CDK6/CCND1; [10],25 to 250 nM
"CCC1(C)C(=O)Nc2cc(C#Cc3nccc4cnc(Nc5ccc(S(C)(=O)=O)cc5)cc34)ccc21 (racemic) [Example 390, 3-ethyl-3-methyl-6-((7-((4-(methylsulfonyl)phenyl)amino)-2,6-naphthyridin-1-yl)ethynyl)indolin-2-one]",IC50,CDK2/CCNE1; [7],< 25 nM
same,IC50,CDK1/CCNB1; [8],25 to 250 nM
same,IC50,CDK4/CCND3; [11],> 250 nM
same,IC50,CDK6/CCND1; [12],> 250 nM
"CC1(CO)C(=O)Nc2cc(C#Cc3nccc4cnc(Nc5ccc(S(C)(=O)=O)cc5)cc34)ccc21 (racemic) [Example 391, 3-(hydroxymethyl)-3-methyl-6-((7-((4-(methylsulfonyl)phenyl)amino)-2,6-naphthyridin-1-yl)ethynyl)indolin-2-one]",IC50,CDK2/CCNE1; [7],< 25 nM
same,IC50,CDK1/CCNB1; [8],25 to 250 nM
same,IC50,CDK4/CCND3; [9],25 to 250 nM
same,IC50,CDK6/CCND1; [12],> 250 nM
"CC(C)S(=N)(=O)c1ccc(Nc2cc3c(C#Cc4ccc(=O)[nH]n4)nccc3cn2)cc1 (racemic) [Example 431, 6-((7-((4-(propan-2-ylsulfonimidoyl)phenyl)amino)-2,6-naphthyridin-1-yl)ethynyl)pyridazin-3(2H)-one]",IC50,CDK2/CCNE1; [7],< 25 nM
same,IC50,CDK1/CCNB1; [13],> 250 nM
same,IC50,CDK4/CCND3; [11],> 250 nM
same,IC50,CDK6/CCND1; [12],> 250 nM
"Cc1c(-c2nccc3cnc(Nc4ccc(S(C)(=N)=O)cc4)cc23)ccc2nn(C)cc12 (racemic) [Example 626, (4-((5-(2,4-dimethyl-2H-indazol-5-yl)-2,6-naphthyridin-3-yl)amino)phenyl)(imino)(methyl)-λ^6-sulfanone]",IC50,CDK2/CCNE1; [7],< 25 nM
same,IC50,CDK1/CCNB1; [13],> 250 nM
same,IC50,CDK4/CCND3; [11],> 250 nM
same,IC50,CDK6/CCND1; [12],> 250 nM
"CC1(O)C=C(c2nccc3cnc(Nc4ccc(S(C)(=O)=O)cc4)cc23)CCC1 (racemic) [Example 671, 1-methyl-3-(7-((4-(methylsulfonyl)phenyl)amino)-2,6-naphthyridin-1-yl)cyclohex-2-en-1-ol]",IC50,CDK2/CCNE1; [7],< 25 nM
same,IC50,CDK1/CCNB1; [13],> 250 nM
same,IC50,CDK4/CCND3; [11],> 250 nM
same,IC50,CDK6/CCND1; [10],25 to 250 nM
"CS(=O)(=O)c1ccc(Nc2cc3c(N4CC[C@H](c5ccc(C#N)cc5)[C@H](O)C4)nccc3cn2)cc1 (relative stereo) [Example 606, 4-(3-hydroxy-1-(7-((4-(methylsulfonyl)phenyl)amino)-2,6-naphthyridin-1-yl)piperidin-4-yl)benzonitrile]",IC50,"CDK2/CCNE1; x = IC50 25-250 nM, read-out: CDK2/CCNE IC50 (25-250 nM)",25 to 250 nM
same,IC50,CDK1/CCNB1; [13],> 250 nM
same,IC50,CDK4/CCND3; [11],> 250 nM
same,IC50,CDK6/CCND1; [12],> 250 nM
"CS(=O)(=O)N1CCC(Nc2cc3c(N4CCC(C#N)C4)nccc3cn2)CC1 (single isomer, unassigned) [Ex 115, 1-(7-((1-(methylsulfonyl)piperidin-4-yl)amino)-2,6-naphthyridin-1-yl)pyrrolidine-3-carbonitrile]",IC50,CDK2/CCNE1; [14],< 25 nM
same,IC50,CDK1/CCNB1; [15],25 to 250 nM
same,IC50,"CDK4/CCND3; <25 nM, read-out: CDK4/CCND IC50 <25 nM",< 25 nM
same,IC50,"CDK6/CCND1; <25 nM, read-out: CDK6/CCND IC50 <25 nM",< 25 nM
"Cc1cc(S(=N)(=O)C2COC2)ccc1Nc1cc2c(C#Cc3ccc4c(c3)NC(=O)C43CC3)nccc2cn1 (single isomer, unassigned) [Ex 268, 6'-((7-((2-methyl-4-(oxetane-3-sulfonimidoyl)phenyl)amino)-2,6-naphthyridin-1-yl)ethynyl)spiro[cyclopropane-1,3'-indolin]-2'-one]",IC50,CDK2/CCNE1; [14],< 25 nM
same,IC50,CDK1/CCNB1; [15],25 to 250 nM
same,IC50,"CDK4/CCND3; 25-250 nM marked x, read-out: CDK4/CCND IC50 25-250 nM",25 to 250 nM
same,IC50,CDK6/CCND1; [16],> 250 nM
"CCC1(CC)C(=O)Nc2cc(C#Cc3nccc4cnc(Nc5ccc(S(=N)(=O)C6CCC6)cc5OC)cc34)ccc21 (single isomer, unassigned) [Ex 269, 6-((7-((4-(cyclobutanesulfonimidoyl)-2-methoxyphenyl)amino)-2,6-naphthyridin-1-yl)ethynyl)-3,3-diethylindolin-2-one]",IC50,CDK2/CCNE1; [14],< 25 nM
same,IC50,CDK1/CCNB1; [17],> 250 nM
same,IC50,CDK4/CCND3; [18],> 250 nM
same,IC50,CDK6/CCND1; [16],> 250 nM
"CCC1(CC)C(=O)Nc2cc(C#Cc3nccc4cnc(Nc5ccc(S(=N)(=O)C6COC6)cc5F)cc34)ccc21 (single isomer, unassigned) [Ex 273, 3,3-diethyl-6-((7-((2-fluoro-4-(oxetane-3-sulfonimidoyl)phenyl)amino)-2,6-naphthyridin-1-yl)ethynyl)indolin-2-one]",IC50,CDK2/CCNE1; [14],< 25 nM
same,IC50,CDK1/CCNB1; [17],> 250 nM
same,IC50,CDK4/CCND3; [18],> 250 nM
same,IC50,CDK6/CCND1; [16],> 250 nM
"COc1cc(S(=N)(=O)C2CC2)ccc1Nc1cc2c(C#Cc3ccc4c(c3)NC(=O)C43CC3)nccc2cn1 (single isomer, unassigned) [Ex 278, 6'-((7-((4-(cyclopropanesulfonimidoyl)-2-methoxyphenyl)amino)-2,6-naphthyridin-1-yl)ethynyl)spiro[cyclopropane-1,3'-indolin]-2'-one]",IC50,CDK2/CCNE1; [14],< 25 nM
same,IC50,CDK1/CCNB1; [17],> 250 nM
same,IC50,CDK4/CCND3; [18],> 250 nM
same,IC50,CDK6/CCND1; [16],> 250 nM
"CCC1(CC)C(=O)Nc2cc(C#Cc3nccc4cnc(Nc5ccc(S(=N)(=O)CC(F)(F)F)cc5OC)cc34)ccc21 (single isomer, unassigned) [Ex 281, 3,3-diethyl-6-((7-((2-methoxy-4-(2,2,2-trifluoroethylsulfonimidoyl)phenyl)amino)-2,6-naphthyridin-1-yl)ethynyl)indolin-2-one]",IC50,"CDK2/CCNE1; >250 nM marked x, read-out: CDK2/CCNE IC50 >250 nM",> 250 nM
same,IC50,CDK1/CCNB1; [17],> 250 nM
same,IC50,CDK4/CCND3; [18],> 250 nM
same,IC50,CDK6/CCND1; [16],> 250 nM
